According to ChEMBL document CHEMBL6083180, “Design, synthesis, and biological activity of D-bishomo-1α,25-dihydroxyvitamin D3 analogs and their crystal structures with the vitamin D nuclear receptor” (Eur J Med Chem, 2024):
One block for each molecule: values may come before it. Calls of active or inactive are those of the source. The calls are words filed in the database; no cut-off is given here.

Key:
HL-60 [1] = assay: Antiproliferative activity against human HL-60 cells at 100 nM incubated for 72 hrs by MTT assay relative to control; format: functional
[2] = Antiproliferative activity against human LUDLU-1 cells at 1000 nM incubated for 72 hrs by SRB assay relative to control; format: functional
MV4-11 [3] = assay: Antiproliferative activity against human MV4-11 cells at 1000 nM incubated for 72 hrs by MTT assay relative to control; format: functional
NCI-H226 [4] = assay: Antiproliferative activity against human NCI-H226 cells at 100 nM incubated for 72 hrs by SRB assay relative to control; format: functional
MV4-11 [5] = assay: Antiproliferative activity against human MV4-11 cells at 100 nM incubated for 72 hrs by MTT assay relative to control; format: functional
HCC4006 [6] = assay: Antiproliferative activity against human HCC4006 cells assessed as inhibition of cell proliferation at 100 nM incubated for 72 hrs by SRB assay relative to control; format: functional
[7] = Antiproliferative activity against human LUDLU-1 cells at 100 nM incubated for 72 hrs by SRB assay relative to control; format: functional
HL-60 [8] = assay: Antiproliferative activity against human HL-60 cells at 1000 nM incubated for 72 hrs by MTT assay relative to control; format: functional
NCI-H226 [9] = assay: Antiproliferative activity against human NCI-H226 cells at 1000 nM incubated for 72 hrs by SRB assay relative to control; format: functional
HCC4006 [10] = assay: Antiproliferative activity against human HCC4006 cells assessed as inhibition of cell proliferation at 10 nM incubated for 72 hrs by SRB assay relative to control; format: functional
HCC4006 [11] = assay: Antiproliferative activity against human HCC4006 cells assessed as inhibition of cell proliferation at 1 nM incubated for 72 hrs by SRB assay relative to control; format: functional
HCC4006 [12] = assay: Antiproliferative activity against human HCC4006 cells assessed as inhibition of cell proliferation at 1000 nM incubated for 72 hrs by SRB assay relative to control; format: functional
ROS 17/2.8 = assay: Induction of transcriptional activity in rat ROS 17/2.8 cells transfected with CYP24 incubated for 16 hrs by Luciferase reporter gene assay; format: functional, cell-based
MDA-MB-231 = assay: Antiproliferative activity against human MDA-MB-231 cells incubated for 72 hrs by SRB assay; format: functional, cell-based
CAL-51 = assay: Antiproliferative activity against human CAL-51 cells incubated for 72 hrs by SRB assay; format: functional, cell-based
MV4-11 [13] = assay: Effect on cell cycle distribution in human MV4-11 cells assessed as accumulation at G0/G1 phase at 10 nM incubated for 72 hrs; format: functional, cell-based
MV4-11 [14] = assay: Upregulation of CD14 expression in human MV4-11 cells at 10 nM incubated for 72 hrs; format: functional, cell-based
MCF7 = assay: Antiproliferative activity against human MCF7 cells at 100 nM incubated for 72 hrs by SRB assay relative to control; format: functional
MCF-10A = assay: Antiproliferative activity against human MCF-10A cells incubated for 72 hrs by SRB assay; format: toxicity, cell-based
MV4-11 [15] = assay: Effect on cell cycle distribution in human MV4-11 cells assessed as accumulation at G0/G1 phase at 1000 nM incubated for 72 hrs; format: functional, cell-based
MV4-11 [16] = assay: Effect on cell cycle distribution in human MV4-11 cells assessed as decrease in accumulation at G2/M phase at 10 to 1000 nM incubated for 72 hrs; format: functional, cell-based; details: dose 10-1000 nM
Rattus norvegicus [17] = assay: Induction of calcium transport in intestine of vitamin D-deficient Sprague-Dawley rat at 780 pmol, ip administered daily for 4 days; format: functional, organism-based; details: time 4.0 day
MV4-11 [18] = assay: Effect on cell cycle distribution in human MV4-11 cells assessed as accumulation at G0/G1 phase at 100 nM incubated for 72 hrs; format: functional, cell-based
HCC4006 [19] = assay: Antiproliferative activity against human HCC4006 cells incubated for 72 hrs by SRB assay; format: functional, cell-based; details: HCC4006, 72 h
MV4-11 [20] = assay: Upregulation of CD11b expression in human MV4-11 cells at 10 nM incubated for 72 hrs; format: functional, cell-based
Rattus norvegicus [21] = assay: Induction of calcium mobilization in bone of vitamin D-deficient Sprague-Dawley rat at 2340 pmol, ip administered daily for 4 days; format: functional, organism-based; details: Bone element, time 4.0 day
Rattus norvegicus [22] = assay: Induction of calcium mobilization in bone of vitamin D-deficient Sprague-Dawley rat at 780 pmol, ip administered daily for 4 days; format: functional, organism-based; details: Bone element, time 4.0 day
Rattus norvegicus [23] = assay: Induction of calcium transport in intestine of vitamin D-deficient Sprague-Dawley rat at 260 pmol, ip administered daily for 4 days; format: functional, organism-based; details: time 4.0 day
NCI-H1975 = assay: Antiproliferative activity against human NCI-H1975 cells harboring EGFR mutation incubated for 72 hrs by SRB assay; format: functional, cell-based
NCI-H1650 = assay: Antiproliferative activity against human NCI-H1650 cells harboring EGFR mutation incubated for 72 hrs by SRB assay; format: functional, cell-based
MV4-11 [24] = assay: Antiproliferative activity against human MV4-11 cells at 10 nM incubated for 72 hrs by MTT assay relative to control; format: functional
MV4-11 [25] = assay: Antiproliferative activity against human MV4-11 cells at 1 nM incubated for 72 hrs by MTT assay relative to control; format: functional

SMILES: C=C1/C(=C\C=C2/CCC[C@]3(C)[C@@H]([C@H](C)CCCC(C)(C)O)CC[C@@H]23)C[C@@H](O)C[C@@H]1O [CALCITRIOL]
inhibition at 0.1 µM (HL-60 [1]): 35.9%
inhibition at 1 µM [2]: 10%
inhibition at 1 µM (MV4-11 [3]): 48.8%
inhibition at 0.1 µM (NCI-H226 [4]): 15%
inhibition at 0.1 µM (MV4-11 [5]): 39.8%
inhibition at 0.1 µM (HCC4006 [6]): 14%
inhibition at 0.1 µM [7]: 15%
inhibition at 1 µM (HL-60 [8]): 54.9%
inhibition at 1 µM (NCI-H226 [9]): 10%
inhibition at 0.01 µM (HCC4006 [10]): 30.4%
inhibition at 0.001 µM (HCC4006 [11]): 10.1%
inhibition at 1 µM (HCC4006 [12]): 17%

SMILES: CC1[C@H](O)CC(=C/C=C2\CCC[C@@]3(C)[C@H]2CCCC[C@H]3[C@H](C)CCCC(C)(C)O)C[C@H]1O (some centres undefined)
Activity (ROS 17/2.8): Not active; Exhibited Equal Or Slightly Less Potency Than Calcitriol; Exhibited Least Activity
Activity (MDA-MB-231): inactive
Activity (CAL-51): inactive
Activity (MV4-11 [14]): inactive
inhibition at 0.1 µM (HL-60 [1]): 20.5%
inhibition at 0.1 µM (MCF7): 29%
inhibition at 1 µM (MV4-11 [3]): 29.7%
Activity (MV4-11 [15]): Active
Activity (MV4-11 [16]): Active
inhibition at 0.1 µM (MV4-11 [5]): 39.7%
Activity (Rattus norvegicus [17]): inactive
inhibition at 1 µM (HL-60 [8]): 43.8%
IC50 (HCC4006 [19]): 0.0826 µM
Activity (MV4-11 [20]): inactive
Activity (Rattus norvegicus [21]): inactive

SMILES: C[C@H](CCCC(C)(C)O)[C@@H]1CCCC[C@H]2/C(=C/C=C3C[C@@H](O)C(=CCCO)[C@H](O)C3)CCC[C@@]21C
Activity (ROS 17/2.8): Active; Exhibited Higher Potency Than Calcitriol
Activity (MDA-MB-231): inactive
Activity (CAL-51): inactive
Activity (MV4-11 [13]): Active
Activity (MV4-11 [14]): Active
inhibition at 0.1 µM (HL-60 [1]): 22.1%
inhibition at 0.1 µM (MCF7): 21.3%
Activity (Rattus norvegicus [22]): Active; Most Potent Compound And Equal In Activity To Calcitriol
inhibition at 1 µM (MV4-11 [3]): 32%
Activity (MV4-11 [16]): Active
inhibition at 0.1 µM (MV4-11 [5]): 25.5%
inhibition at 1 µM (HL-60 [8]): 27.5%
Activity (Rattus norvegicus [23]): Active; Most Potent Compound And Equal In Activity To Calcitriol
Activity (MV4-11 [20]): Active
inhibition at 0.01 µM (HCC4006 [10]): 39.1%
inhibition at 0.001 µM (HCC4006 [11]): 37.5%

Second part, led by results:

IC50 (HCC4006 [19]): 0.0452 µM
SMILES: C[C@H](CCCC(C)(C)O)[C@@H]1CCCC[C@H]2/C(=C/C=C3C[C@@H](O)C[C@H](O)C3)CCC[C@@]21C
Activity (ROS 17/2.8): Active; Exhibited Equal Or Slightly Less Potency Than Calcitriol
Activity (MDA-MB-231): inactive
Activity (CAL-51): inactive
Activity (MV4-11 [13]): Active
Activity (MV4-11 [14]): Active; Exhibited Highest Expression
inhibition at 0.1 µM (HL-60 [1]): 17.9%
inhibition at 0.1 µM (MCF7): 30.8%
Activity (MCF-10A): Non-toxic
inhibition at 1 µM (MV4-11 [3]): 31.2%
Activity (MV4-11 [15]): Active
Activity (MV4-11 [16]): Active
inhibition at 0.1 µM (MV4-11 [5]): 25.3%
Activity (Rattus norvegicus [17]): inactive
inhibition at 1 µM (HL-60 [8]): 24.2%
Activity (MV4-11 [18]): Active
Activity (MV4-11 [20]): Active
Activity (Rattus norvegicus [21]): inactive

IC50 (HCC4006 [19]): 0.0277 µM
SMILES: C=C1[C@H](O)CC(=C/C=C2\CCC[C@@]3(C)[C@H]2CCCC[C@H]3[C@H](C)CCCC(C)(C)O)C[C@H]1O
Activity (ROS 17/2.8): Active; Exhibited Higher Potency Than Calcitriol
Activity (MDA-MB-231): inactive
Activity (CAL-51): inactive
Activity (MV4-11 [14]): Active
inhibition at 0.1 µM (HL-60 [1]): 35%
inhibition at 0.1 µM (MCF7): 31%
Activity (MCF-10A): Non-toxic
inhibition at 1 µM (MV4-11 [3]): 50%
Activity (NCI-H1975): Active; Maintained Its Activity At Constant Level In Tested Concentration But Without Statistical Significance For Lowest Concentrations
Activity (MV4-11 [16]): Active
inhibition at 0.1 µM (MV4-11 [5]): 32.6%
inhibition at 1 µM (HL-60 [8]): 47.6%
Activity (Rattus norvegicus [23]): Active; Second Most Potent Compound But Exhibited Less Activity Than Calcitriol
Activity (MV4-11 [18]): Active
Activity (MV4-11 [20]): Active; Exhibited Highest Expression
inhibition at 0.01 µM (HCC4006 [10]): 44.8%
Activity (Rattus norvegicus [21]): Active; Second Most Potent Compound But Exhibited Less Activity Than Calcitriol
inhibition at 0.001 µM (HCC4006 [11]): 39.1%
Activity (NCI-H1650): Active; Maintained Its Activity At Constant Level In Tested Concentration But Without Statistical Significance For Lowest Concentrations

IC50 (HCC4006 [19]): 0.0496 µM
SMILES: C=C1/C(=C\C=C2/CCC[C@@]3(C)[C@H]2CCCC[C@H]3[C@H](C)CCCC(C)(C)O)C[C@@H](O)C[C@@H]1O
Activity (ROS 17/2.8): Active; Exhibited Higher Potency Than Calcitriol
Activity (MDA-MB-231): inactive
Activity (CAL-51): inactive
Activity (MV4-11 [13]): Active
Activity (MV4-11 [14]): Active
inhibition at 0.1 µM (HL-60 [1]): 17.1%
inhibition at 0.1 µM (MCF7): 37.9%
Activity (Rattus norvegicus [22]): inactive
inhibition at 1 µM (MV4-11 [3]): 42.8%
Activity (MV4-11 [16]): Active
inhibition at 0.1 µM (MV4-11 [5]): 44.2%
Activity (Rattus norvegicus [17]): inactive
inhibition at 1 µM (HL-60 [8]): 39.7%
Activity (MV4-11 [18]): Active
inhibition at 0.01 µM (MV4-11 [24]): 41%
Activity (MV4-11 [20]): Active
inhibition at 0.001 µM (MV4-11 [25]): 23.7%
